Experimental data as given in US8530493B2, “Indolopyridines as Eg5 kinesin modulators” (4SC AG, priority 2006, dated 2013).

system: RKO p21 uninduced (proliferating) colon adenocarcinoma cells; experiment: Alamar Blue cell viability assay, RKO p21 uninduced (proliferating); assay type: cell-based; conditions: Homo sapiens, Table B3, anti-proliferative/cytotoxic activity, 72 hours, read-out: −log EC50 RKO p21 uninduced (proliferating) (converted)
Method in brief: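 Viability read by Alamar Blue fluorescence (ex 544, em 590 nm), normalised to untreated wells, after 72 h, 37° C, 5% CO2 compound exposure in triplicate. Cells were uninduced (no Ponasterone A), proliferating RKO colon carcinoma p27 or p21 subclones in DMEM with 10% FCS; values are −log EC50 (mol/l).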

SMILES	EC50 [nM]
C[C@@]12Cc3c([nH]c4cc(F)c(Cl)cc34)[C@@H](c3cccc(O)c3)N1C(=O)N(CCNC1CCC1)C2=O (racemic) [Example 344, (3aSR,10RS)-6-Chloro-2-(2-cyclobutylamino-ethyl)-7-fluoro-10-(3-hydroxy-phenyl)-3a-methyl-3a,4,9,10-tetrahydro-2,9,10a-triaza-cyclopenta[b]fluorene-1,3-dione]	≤ 39.8
C[C@@]12Cc3c([nH]c4cc(F)c(Cl)cc34)[C@@H](c3cccc(O)c3)N1C(=O)N(CCNCC1CC1)C2=O (racemic) [Example 341, (3aSR,10RS)-6-Chloro-2-[2-(cyclopropylmethyl-amino)-ethyl]-7-fluoro-10-(3-hydroxy-phenyl)-3a-methyl-3a,4,9,10-tetrahydro-2,9,10a-triaza-cyclopenta[b]fluorene-1,3-dione]	≤ 39.8
CC(=O)N1CCN(CCCN2C(=O)N3[C@H](c4cccc(O)c4)c4[nH]c5cc(F)c(Cl)cc5c4C[C@@]3(C)C2=O)CC1 (racemic) [Example 482, (3aSR,10RS)-2-[3-(4-Acetyl-piperazin-1-yl)-propyl]-6-chloro-7-fluoro-10-(3-hydroxy-phenyl)-3a-methyl-3a,4,9,10-tetrahydro-2,9,10a-triaza-cyclopenta[b]fluorene-1,3-dione]	39.8 to 251
C[C@@]12Cc3c([nH]c4ccc(OC(F)F)cc34)[C@@H](c3cccc(O)c3)N1C(=O)N(CCCN1CCCCC1)C2=O (racemic) [Example 239, (3aSR,10RS)-6-(1,1-Difluoro-methoxy)-10-(3-hydroxy-phenyl)-3a-methyl-2-(3-piperidin-1-yl-propyl)-3a,4,9,10-tetrahydro-2,9,10a-triaza-cyclopenta[b]fluorene-1,3-dione]	≤ 39.8
CCOc1ccc2[nH]c3c(c2c1)C[C@@]1(C)C(=O)N(CCCN(C)C(C)C)C(=O)N1[C@@H]3c1cccc(O)c1 (racemic) [Example 197, (3aSR,10RS)-6-Ethoxy-10-(3-hydroxy-phenyl)-2-[3-(isopropyl-methyl-amino)-propyl]-3a-methyl-3a,4,9,10-tetrahydro-2,9,10a-triaza-cyclpenta[b]fluorene-1,3-dione]	39.8 to 251
CN(CCO)CCN1C(=O)N2[C@H](c3cccc(O)c3)c3[nH]c4ccc(Br)cc4c3C[C@@]2(C)C1=O (racemic) [Example 384, (3aSR,10RS)-6-Bromo-2-{2-[(2-hydroxy-ethyl)-methyl-amino]-ethyl}-10-(3-hydroxy-phenyl)-3a-methyl-3a,4,9,10-tetrahydro-2,9,10a-triaza-cyclopenta[b]fluorene-1,3-dione]	≤ 39.8
C[C@@]12Cc3c([nH]c4ccc(OC(F)F)cc34)[C@@H](c3cccc(O)c3)N1C(=O)N(CCN1CCOCC1)C2=O (racemic) [Example 292, (3aSR,10RS)-6-(1,1-Difluoro-methoxy)-10-(3-hydroxy-phenyl)-3a-methyl-2-(2-morpholin-4-yl-ethyl)-3a,4,9,10-tetrahydro-2,9,10a-triaza-cyclopenta[b]fluorene-1,3-dione]	39.8 to 251
COc1cc2c3c([nH]c2cc1F)[C@@H](c1cccc(O)c1)N1C(=O)N(CCCN2CCC(C)CC2)C(=O)[C@]1(C)C3 (racemic) [Example 327, (3aSR,10RS)-7-Fluoro-10-(3-hydroxy-phenyl)-6-methoxy-3a-methyl-2-[3-(4-methyl-piperidin-1-yl)-propyl]-3a,4,9,10-tetrahydro-2,9,10a-triaza-cyclopenta[b]fluorene-1,3-dione]	39.8 to 251
C[C@@]12Cc3c([nH]c4cc(F)c(Cl)cc34)[C@@H](c3cccc(O)c3)N1C(=O)N(CCCNCCO)C2=O (racemic) [Example 461, (3aSR,10RS)-6-Chloro-7-fluoro-2-[3-(2-hydroxy-ethylamino)-propyl]-10-(3-hydroxy-phenyl)-3a-methyl-3a,4,9,10-tetrahydro-2,9,10a-triaza-cyclopenta[b]fluorene-1,3-dione]	39.8 to 251
CCN(CCOC)CCN1C(=O)N2[C@H](c3cccc(O)c3)c3[nH]c4ccc(OC(F)F)cc4c3C[C@@]2(C)C1=O (racemic) [Example 289, (3aSR,10RS)-6-(1,1-Difluoro-methoxy)-2-{2-[ethyl-(2-methoxy-ethyl)-amino]-ethyl}-10-(3-hydroxy-phenyl)-3a-methyl-3a,4,9,10-tetrahydro-2,9,10a-triaza-cyclopenta[b]fluorene-1,3-dione]	39.8 to 251
COc1cc2c3c([nH]c2cc1F)[C@@H](c1cccc(O)c1)N1C(=O)N(CCNCC2CC2)C(=O)[C@]1(C)C3 (racemic) [Example 251, (3aSR,10RS)-2-[2-(Cyclopropylmethyl-amino)-ethyl]-7-fluoro-10-(3-hydroxy-phenyl)-6-methoxy-3a-methyl-3a,4,9,10-tetrahydro-2,9,10a-triaza-cyclopenta[b]fluorene-1,3-dione]	≤ 39.8
COc1ccc2[nH]c3c(c2c1)C[C@@]1(C)C(=O)N(CCCNCC2CC2)C(=O)N1[C@@H]3c1cccc(O)c1 [Example 535, (3aS,10R)-2-[3-(Cyclopropylmethyl-amino)-propyl]-10-(3-hydroxy-phenyl)-6-methoxy-3a-methyl-3a,4,9,10-tetrahydro-2,9,10a-triaza-cyclopenta[b]fluorene-1,3-dione]	≤ 39.8
CCN(C)CCN1C(=O)N2[C@H](c3cccc(O)c3)c3[nH]c4cc(F)c(OC)cc4c3C[C@@]2(C)C1=O (racemic) [Example 257, (3aSR,10RS)-2-[2-(Ethyl-methyl-amino)-ethyl]-7-fluoro-10-(3-hydroxy-phenyl)-6-methoxy-3a-methyl-3a,4,9,10-tetrahydro-2,9,10a-triaza-cyclopenta[b]fluorene-1,3-dione]	39.8 to 251
C[C@@]12Cc3c([nH]c4ccc(OC(F)F)cc34)[C@@H](c3cccc(O)c3)N1C(=O)N(CCN1CCCCCC1)C2=O (racemic) [Example 282, (3aSR,10RS)-2-(2-Azepan-1-yl-ethyl)-6-(1,1-difluoro-methoxy)-10-(3-hydroxy-phenyl)-3a-methyl-3a,4,9,10-tetrahydro-2,9,10a-triaza-cyclopenta[b]fluorene-1,3-dione]	39.8 to 251
CCN(CC)CCN1C(=O)N2[C@H](c3cccc(O)c3)c3[nH]c4cc(F)c(Cl)cc4c3C[C@@]2(C)C1=O (racemic) [Example 336, (3aSR,10RS)-6-Chloro-2-(2-diethylamino-ethyl)-7-fluoro-10-(3-hydroyx-phenyl)-3a-methyl-3a,4,9,10-tetrahydro-2,9,10a-triaza-cyclopenta[b]fluorene-1,3-dione]	39.8 to 251
CCOc1ccc2[nH]c3c(c2c1)C[C@@]1(C)C(=O)N(CCN(C)CC)C(=O)N1[C@@H]3c1cccc(O)c1 (racemic) [Example 158, (3aSR,10RS)-6-Ethoxy-2-[2-(ethyl-methyl-amino)-ethyl]-10-(3-hydroxy-phenyl)-3a-methyl-3a,4,9,10-tetrahydro-2,9,10a-triaza-cyclopenta[b]fluorene-1,3-dione]	≤ 39.8
CN(CCO)CCCN1C(=O)N2[C@H](c3cccc(O)c3)c3[nH]c4ccc(Br)cc4c3C[C@@]2(C)C1=O (racemic) [Example 370, (3aSR,10RS)-6-Bromo-2-{3-[(2-hydroxy-ethyl)-methyl-amino]-propyl}-10-(3-hydroxy-phenyl)-3a-methyl-3a,4,9,10-tetrahydro-2,9,10a-triaza-cyclopenta[b]fluorene-1,3-dione]	≤ 39.8
C=CCNCCN1C(=O)N2[C@H](c3cccc(O)c3)c3[nH]c4ccc(Br)cc4c3C[C@@]2(C)C1=O (racemic) [Example 383, (3aSR,10RS)-2-(2-Allylamino-ethyl)-6-bromo-10-(3-hydroxy-phenyl)-3a-methyl-3a,4,9,10-tetrahydro-2,9,10a-triaza-cyclopenta[b]fluorene-1,3-dione]	≤ 39.8
CNCCCN1C(=O)N2[C@H](c3cccc(O)c3)c3[nH]c4cc(F)c(OC)cc4c3C[C@@]2(C)C1=O (racemic) [Example 303, (3aSR,10RS)-7-Fluoro-10-(3-hydroxy-phenyl)-6-methoxy-3a-methyl-2-(3-methylamino-propyl)-3a,4,9,10-tetrahydro-2,9,10a-triaza-cyclopenta[b]fluorene-1,3-dione]	39.8 to 251
CNCCN1C(=O)N2[C@H](c3cccc(O)c3)c3[nH]c4cc(F)c(OC)cc4c3C[C@@]2(C)C1=O (racemic) [Example 248, (3aSR,10RS)-7-Fluoro-10-(3-hydroxy-phenyl)-6-methoxy-3a-methyl-2-(2-methylamino-ethyl)-3a,4,9,10-tetrahydro-2,9,10a-triaza-cyclopenta[b]fluorene-1,3-dione]	39.8 to 251
C=CCNCCN1C(=O)N2[C@H](c3cccc(O)c3)c3[nH]c4ccc(OCC)cc4c3C[C@@]2(C)C1=O (racemic) [Example 157, (3aSR,10RS)-2-(2-Allylamino-ethyl)-6-ethoxy-10-(3-hydroxy-phenyl)-3a-methyl-3a,4,9,10-tetrahydro-2,9,10a-triaza-cyclopenta[b]fluorene-1,3-dione]	≤ 39.8
CNCCCN1C(=O)N2[C@H](c3cccc(O)c3)c3[nH]c4cc(F)c(Cl)cc4c3C[C@@]2(C)C1=O (racemic) [Example 456, (3aSR,10RS)-6-Chloro-7-fluoro-10-(3-hydroxy-phenyl)-3a-methyl-2-(3-methylamino-propyl)-3a,4,9,10-tetrahydro-2,9,10a-triaza-cyclopenta[b]fluorene-1,3-dione]	39.8 to 251
CCN(CC)CCN1C(=O)N2[C@H](c3cccc(O)c3)c3[nH]c4ccc(Br)cc4c3C[C@@]2(C)C1=O (racemic) [Example 385, (3aSR,10RS)-6-Bromo-2-(2-diethylamino-ethyl)-10-(3-hydroxy-phenyl)-3a-methyl-3a,4,9,10-tetrahydro-2,9,10a-triaza-cyclopenta[b]fluorene-1,3-dione]	≤ 39.8
COc1cc2c3c([nH]c2cc1F)[C@@H](c1cccc(O)c1)N1C(=O)N(CCNC2CCC2)C(=O)[C@]1(C)C3 (racemic) [Example 426, (3aSR,10RS)-2-(2-Cyclobutylamino-ethyl)-7-fluoro-10-(3-hydroxy-phenyl)-6-methoxy-3a-methyl-3a,4,9,10-tetrahydro-2,9,10a-triaza-cyclopenta[b]fluorene-1,3-dione]	≤ 39.8
